{
  "source": "paper PMC7381740",
  "about": "(Theranostics, 2020)",
  "key": {"S1R [1]": {"molecular_target": "T1, S1R (Homo sapiens, UniProt Q99720)", "T1 construct": "Post-mortem brain tissues of 23 cases (8 men and 15 women) were obtained from the Manchester Brain Bank; from tissue; host or cells: post-mortem human frontal and temporal cortex (Manchester Brain Bank)", "T1 sequence (Q99720 whole entry)": "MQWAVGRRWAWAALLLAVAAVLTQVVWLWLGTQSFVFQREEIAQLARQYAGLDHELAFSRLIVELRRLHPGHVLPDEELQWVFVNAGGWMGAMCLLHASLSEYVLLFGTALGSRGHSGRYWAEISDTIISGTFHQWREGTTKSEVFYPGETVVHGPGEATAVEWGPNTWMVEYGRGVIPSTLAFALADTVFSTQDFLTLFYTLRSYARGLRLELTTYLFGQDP", "assay": "Autoradiography in post-mortem human cortex (controls, subclinical AD, AD)", "assay_type": "binding", "description": "Post-mortem brain tissues of 23 cases (8 men and 15 women) were obtained from the Manchester Brain Bank through appropriate consenting procedures for collection and use of the human brain tissues. Pathological diagnoses were made by an experienced neuropathologist (DM) as previously described, [48] and were in accordance with recent National Institute on Ageing - Alzheimer's Association guidelines for the neuropathological assessment of AD [49]. By such classification, only cases with Braak stages 5 and 6 were classed as definite AD. Cases with Braak Stages >2 & ≤4 were not diagnosed as definite AD, but these could be considered as cases of possible (incipient) AD, thereby representing cases with early changes of AD. Amyloid plaque load per se was not employed for classification of AD, although it is acknowledged that neuritic plaque scores do form the basis of CERAD classification. Clearly, in terms of amyloid plaques alone, there was overlap in amyloid load between cases at Braak stage >2 & ≤4 and those at Braak stages 5 and 6. Subjects were therefore split in three groups based on their Braak stages: controls (Braak ≤2, 8 subjects), subclinical AD (Braak >2 & ≤4, 8 subjects) and AD (Braak >4, 7 subjects). Details of each case are described in Table 1. […] These were obtained from aged patients with no history of neurological disease and no pathological evidence of AD or other degenerative brain disease. […] The average post-mortem delay was also similar for all groups (mean ± SD [min.-max.]: 34.9 ± 11.3 [12]-[46]; 35.8 ± 9.9 [25]-[48] and 41.5 ± 14.2 [24]-[64] hours for controls, subclinical AD and AD groups, respectively). Subsequently to the autoradiography experiments, measurements from frontal cortex of case #3 were not included as the sections had been damaged during the experiments (Table 1).\nSections of frontal (Brodmann areas 8/9) and temporal cortex (Brodmann areas 21/22) were cut from frozen human tissue blocks. Human and rodents sections were mounted on to glass slides (SuperFrost Plus Gold and SuperFrost Plus slides, Thermo Fisher Scientific Inc., MA, USA for human and animal tissues, respectively). For all steps described below, Tris buffer (Trizma pre-set crystals (Sigma, UK), 50 mM, with 120 mM NaCl, with pH adjusted to 7.4 at 4 °C or room temperature) was used. Slides were allowed to defrost then pre-incubated in Tris Buffer at 4 °C for 5min. […] Adjacent sections were incubated with the same solution containing an excess of unlabelled IAM6067 (2 µM) to assess non-specific binding. Next the slides were washed 2 × 2 min in Tris buffer at 4 °C, followed by a quick rinsing in distilled water at 4 °C. Slides were then dried promptly before exposition on Phosphor-Imager plates overnight. Autoradiographs were analysed using AIDA software (Raytest GmbH, Germany). […] Specific binding (total binding minus non-specific binding) in each ROI is expressed as intensity of the photostimulated luminescence (PSL) per pixel.\nSpecific binding for human autoradiography across the three groups in both frontal and temporal cortex and for grey and white matter was analysed by mixed-model fitting (brain structures as repeated factor). As this analysis only returned an effect for the brain structures factor and not for the Braak stage, a Sidak's post-hoc test comparing brain regions only was performed."}, "S1R [2]": {"molecular_target": "S1R (Rattus norvegicus, UniProt Q9R0C9)", "sequence (Q9R0C9 whole entry)": "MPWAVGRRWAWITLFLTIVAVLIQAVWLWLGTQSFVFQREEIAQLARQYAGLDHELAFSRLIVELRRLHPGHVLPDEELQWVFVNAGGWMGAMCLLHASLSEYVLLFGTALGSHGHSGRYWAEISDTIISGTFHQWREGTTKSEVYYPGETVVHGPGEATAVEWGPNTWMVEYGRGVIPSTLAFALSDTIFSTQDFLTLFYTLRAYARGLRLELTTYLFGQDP", "assay": "PET in AMPA excitotoxic lesion model", "assay_type": "in vivo", "method": "Animals were maintained normothermic (body temperature: 37.0 ± 0.4 °C) during the surgery through the use of a heating blanket (Homeothermic Blanket Control Unit, Harvard Apparatus Limited®, Edenbridge, Kent, UK). Twenty-four hours later, the rats were anesthetized again as described above and scanned with a 3T cryogen-free MRS 3000 scanner with a quadrature, rat head coil (MR Solutions, Guildford, UK), [35] to assess oedema (i.e. lesion size and location) immediately before the PET scan. Parameters for the T2-weighted RARE sequence were: repetition time = 4800 ms, base echo time = 17 ms, effective echo time = 68 ms, number of echoes = 8, bandwidth = 20 kHz, number of samples = 256, number of views = 240, number of averages = 1 with 25 slices of 1.06 mm, giving a final voxel size of 0.136 × 0.136 × 1.06 mm.\nPET data were expressed as SUV.\nAs the experiments with CM398 were performed later, scans without and with pre-treatment with CM398 were performed in the same animals and therefore were analysed using 2 way ANOVA with repeated measures for ROI and treatment. ANOVA were followed by a Sidak's post-hoc test."}},
  "note": "“And” between values parts separate entries of the source, which are not always exact repeats. Equal entries are not always repeated.",
  "data": [
    {"smiles": "FCCOc1ccc(CN2CCN(Cc3cc4ccccc4o3)CC2)cc1", "note": "[^18F-IAM6067, N-(2-Benzofuranylmethyl)-N'-[4-(2-fluoroethoxy)benzyl]piperazine]", "values": [
      {"measurement": "specific binding", "setting": "S1R [1]; human frontal grey matter, AD (Braak >4)", "value": "3.27 ± 0.90", "unit": "PSL/pixel"},
      {"measurement": "specific binding", "setting": "S1R [1]; human frontal grey matter, controls (Braak ≤2)", "value": "2.37 ± 1.09", "unit": "PSL/pixel"},
      {"measurement": "specific binding", "setting": "S1R [1]; human frontal grey matter, subclinical AD (Braak >2 & ≤4)", "value": "3.11 ± 0.84", "unit": "PSL/pixel"},
      {"measurement": "specific binding", "setting": "S1R [1]; human temporal grey matter, AD (Braak >4)", "value": "2.91 ± 1.20", "unit": "PSL/pixel"},
      {"measurement": "specific binding", "setting": "S1R [1]; human temporal grey matter, controls (Braak ≤2)", "value": "2.56 ± 1.24", "unit": "PSL/pixel"},
      {"measurement": "specific binding", "setting": "S1R [1]; human temporal grey matter, subclinical AD (Braak >2 & ≤4)", "value": "2.98 ± 1.15", "unit": "PSL/pixel"},
      {"measurement": "^18F-IAM6067 uptake, AMPA-lesioned vs control rats (in words)", "setting": "S1R [2]; ipsi- and contralateral substantia nigra and pons-raphe", "value": "significant increase"},
      {"measurement": "change in ^18F-IAM6067 uptake (PET)", "setting": "S1R [2]; lesioned caudate-putamen, 24 h after intrastriatal AMPA 7.5 nmol", "value": "-16% and -16 ± 11%"}
    ]}
  ]
}
